The values that follow are results of earlier work, collected in patent US5786344A, “Camptothecin drug combinations and methods with reduced side effects” (priority 1995, dated 1998).

SMILES strings stand for the structures. “Also recorded” adds a separate entry of the source. Structures can show the parent of a compound that is named as a salt. Where two headings read alike, the source gives them in different places.

One data set relates to p-glycoprotein. The note with it: cited from earlier work.
For data set [1] the following is noted: cited from earlier work.
The conditions of data set [2]: cited from earlier work; for duration of action: intramuscular or subcutaneous.
The mark [3] stands for this setting: plasma/serum/terminal or elimination half-life.

For `C=C[C@@]1(C)CC(=O)[C@@H]2[C@@]3(C)CCCC(C)(C)[C@@H]3[C@H](O)[C@H](OC(C)=O)[C@@]2(C)O1` [1,9-dideoxyforskolina], in the data set with p-glycoprotein, the “inhibition of / interaction with p-glycoprotein” value is reported as “p-glycoprotein inhibitors”.

As for `CCN1CCN(C(=O)N[C@@H](C(=O)N[C@@H]2C(=O)N3C(C(=O)O)=C(CSc4nnnn4C)CS[C@H]23)c2ccc(O)cc2)C(=O)C1=O` [Cefoperazone], the peak plasma concentration in data set [1] (human, in vivo, im) was 80 to 120 µg/mL. Moreover, the peak plasma concentration in data set [1] (human, in vivo, iv) is 250 to 357 µg/mL. Moreover, in data set [1] (human, in vivo), the biliary secretion is 70% and the urinary excretion was 30%. In addition, the “oral absorption” value in data set [1] (oral) is given as “absorbed poorly”.

As to `CCN(CC)CCCC(C)Nc1ccnc2cc(Cl)ccc12` (centres unmarked) [Chloroquine phosphate, 1,4-Pentanediamine, N^4-(7-chloro-4-quinolinyl)-N^1, N^1-diethyl-, phosphate (1:2)], in data set [1] (oral), the “oral absorption” value is reported as “absorbed almost completely”.

Turning to `CN(C)CCCN1c2ccccc2Sc2ccc(Cl)cc21` [Chlorpromazine hydrochloride, 10H-Phenothiazine-10-propanamine, 2-chloro-N,N-dimethyl-, mono hydrochloride], in data set [1] (human, in vivo, im), the volume of distribution is given as 21.8 L/kg. Further, in data set [1] (human, in vivo, po), the “bioavailability / dose reaching the systemic circulation” value is recorded as 32% and the volume of distribution is on record as 80.6 L/kg.

For `O=C1CN=C(c2ccccc2Cl)c2cc([N+](=O)[O-])ccc2N1` [Clonazepam, 2H-1,4-Benzodiazepin-2-one, 5-(2-chlorophenyl)-1,3-dihydro-7-nitro-], in data set [1] (human, in vivo), the therapeutic plasma levels is 20 to 80 ng/mL.

With `OCCN(CCO)c1nc(N2CCCCC2)c2nc(N(CCO)CCO)nc(N3CCCCC3)c2n1` [Dipyridamole, [2,6-Bis(diethanolamino)-4,9-dipiperidinopyrimido-(5,4-d)pyrimidine], in data set [2] (human, in vivo), the clinical toxicity entry is given as “quite nontoxic”.

Consider `CCCCCCCCCC(=O)OCCN1CCN(CCCN2c3ccccc3Sc3ccc(C(F)(F)F)cc32)CC1` [Fluphenazine decanoate], for which the duration of action entry in data set [2] was “about 4 wk”.

For the molecule `CCCCCCC(=O)OCCN1CCN(CCCN2c3ccccc3Sc3ccc(C(F)(F)F)cc32)CC1` [Fluphenazine enanthate], in data set [2] (listed as enanthate salt), the duration of action is recorded as 2 wk.

Take `CCOC(=O)N(C)[C@@H]1C[C@H]2O[C@@](C)([C@@H]1OC)n1c3ccccc3c3c4c(c5c6ccccc6n2c5c31)C(=O)NC4=O` [NA-382, N-ethoxycarbonyl-7-oxo-staurosporine]: the “inhibition of / interaction with p-glycoprotein” value in the data set on p-glycoprotein is recorded as “inhibiting drug binding to p-glycoprotein”.

With `CCC1(c2ccccc2)C(=O)NC(=O)NC1=O` [Phenobarbital, 2,4,6(1H,3H,5H)-Pyrimidinetrione, 5-ethyl-5-phenyl-], the oral absorption entry in data set [1] (% of oral dose) was “Approximately 80%”. In data set [1] (human, in vivo), the therapeutic plasma levels was 10000 to 30000 ng/mL. In addition, the “time to peak plasma level” value in data set [1] (human, plasma) is 16 to 18 h.

As to `O=C1NC(=O)C(c2ccccc2)(c2ccccc2)N1` [Phenytoin, 2,4-Imidazolidinedione, 5,5-diphenyl-], in data set [1] (human, in vivo), the lethal plasma levels is around 100 µg/mL.

Take `C=CC1CN2CCC1CC2C(O)c1ccnc2ccc(OC)cc12` (centres unmarked) [Quinidine polygalacturonate]: the gastrointestinal side effects entry in data set [2] (human, in vivo) was “lesser incidence and severity of gastrointestinal side effects”.

On to `CO[C@H]1/C=C/O[C@@]2(C)Oc3c(C)c(O)c4c(O)c(c(/C=N/N5CCN(C)CC5)c(O)c4c3C2=O)NC(=O)/C(C)=C\C=C\[C@H](C)[C@H](O)[C@@H](C)[C@@H](O)[C@@H](C)[C@H](OC(C)=O)[C@@H]1C` [Rifampin, Rifamycin, 3-[[(4-methyl-1-piperazinyl)imino]methyl]-], for which the “duration of effective levels” value in data set [1] (human, in vivo) is 8 to 10 h.

For `CC(=O)O[C@@]12CO[C@@H]1C[C@H](O)[C@@]1(C)C(=O)[C@H](O)C3=C(C)[C@@H](OC(=O)[C@H](O)[C@@H](NC(=O)OC(C)(C)C)c4ccccc4)C[C@@](O)([C@@H](OC(=O)c4ccccc4)[C@H]21)C3(C)C` [Taxotere], the “inhibition of / interaction with p-glycoprotein” value in the data set on p-glycoprotein is “p-glycoprotein inhibitors”.

For the molecule `CS(=O)(=O)O.C[C@]12C=CC(=O)C=C1CC[C@@H]1C2=CC[C@]2(C)[C@@H](C(=O)CN3CCN(c4cc(N5CCCC5)nc(N5CCCC5)n4)CC3)CC[C@@H]12` [U-74389F], the “inhibition of / interaction with p-glycoprotein” value with p-glycoprotein was “potent inhibitors”.

Regarding `COc1ccc(CCN(C)CCCC(C#N)(c2ccc(OC)c(OC)c2)C(C)C)cc1OC` (stereo not drawn) [Verapamil hydrochloride, benzeneacetonitrile, α-[3-[[2-(3,4-dimethoxyphenyl)ethyl]-methylamino]propyl]-3,4-dime thoxy-a-(l-methylethyl)-, hydrochloride], in data set [1] (% of dose), the “excreted unchanged (urine)” value was “less than 5%” and the fecal excretion is reported as 16%. Further, the oral absorption result in data set [1] (% of oral dose) was “more than 90%”.

Consider `COc1ccc2cc1Oc1ccc(cc1)C[C@H]1c3c(cc4c(c3Oc3cc5c(cc3OC)CCN(C)[C@@H]5C2)OCO4)CCN1C` [cepharanthine], for which the “inhibition of photoaffinity labeling of p-glycoprotein” value in the data set with p-glycoprotein (photolabeling) was “showed inhibition”.

Consider `C=C1[C@@H](C)[C@H]2[C@H](Cc3ccccc3)NC(=O)[C@]23OC(=O)/C=C/[C@H](O)CCC[C@@H](C)C/C=C/[C@H]3[C@@H]1O` [cytochalasin B], for which the “inhibition of / interaction with p-glycoprotein” value in the data set with p-glycoprotein is “inhibiting p-glycoprotein”.

Take `COc1cccc2c1C(=O)c1c(O)c3c(c(O)c1C2=O)C[C@@](O)(C(C)O)C[C@@H]3O[C@H]1C[C@H](N)[C@H](O)[C@H](C)O1` (some centres unmarked) [daunorubicinol]: the half-life result in data set [1] (setting [3]) is given as “about 27 hr”.

Regarding `COc1cccc2c1C(=O)c1c(O)c3c(c(O)c1C2=O)C[C@@](O)(C(=O)CO)C[C@@H]3O[C@H]1C[C@H](N)[C@H](O)[C@H](C)O1` [doxorubicin, 5,12-Naphthacenedione, (8s-cis)-10-[(3-amino-2,3,6-trideoxy-α-L-lyxo-hexopyranosyl)oxy)-7,8,9,10-tetrahydro-6,8,11-trihydroxy-8-(hydroxyacetyl)-1-methoxy-hydrochloride], the “inhibition of / interaction with p-glycoprotein” value in the data set on p-glycoprotein is given as “interacted with p-glycoprotein”. Further, the “oral absorption” value in data set [1] (human, in vivo, po) is recorded as “absorbed poorly”. Further, the half-life entry in data set [1] (setting [3]) is on record as “about 30 hr”.

For the molecule `COc1cc([C@@H]2c3cc4c(cc3[C@@H](O[C@@H]3O[C@@H]5CO[C@@H](C)O[C@H]5[C@H](O)[C@H]3O)[C@H]3COC(=O)[C@H]23)OCO4)cc(OC)c1O` [etoposide], the “inhibition of / interaction with p-glycoprotein” value in the data set with p-glycoprotein is “interacted with p-glycoprotein”. Besides, the peak plasma concentration in data set [1] (human, in vivo, iv) is 30 µg/mL. The oral absorption result in data set [1] (human, in vivo, po) is “about 50%”. Further, in data set [1] (human, in vivo), the “concentration in CSF relative to plasma” value is recorded as 1-10%, the “excreted unchanged (urine)” value is listed as “Approximately 40%” and the half-life entry is on record as “about 8 hours”.

For `CC(=O)[C@H]1CC[C@H]2[C@@H]3CC=C4C[C@@H](O)CC[C@]4(C)[C@H]3CC[C@]12C` [pregnenolone], the “inhibition of / interaction with p-glycoprotein” value in the data set with p-glycoprotein is given as “inhibited the transporting activity of p-glycoprotein”.

For `CC(=O)[C@H]1CC[C@H]2[C@@H]3CCC4=CC(=O)CC[C@]4(C)[C@H]3CC[C@]12C` [progesterone], in the data set with p-glycoprotein, the “inhibition of / interaction with p-glycoprotein” value is listed as “inhibited the transporting activity of p-glycoprotein; also recorded: inhibits their drug efflux”.

`COc1ccc(C[C@H](N)C(=O)N[C@H]2[C@@H](O)[C@H](n3cnc4c(N(C)C)ncnc43)O[C@@H]2CO)cc1` [puromycin]: the “inhibition of / interaction with p-glycoprotein” value in the data set with p-glycoprotein is “interacted with p-glycoprotein”.
